What was measured:
[1] = target: T1, myeloperoxidase (MPO) (Homo sapiens, UniProt P05164); assay: MPO chlorination assay (APF assay); format: biochemical
T1 sequence (P05164 49-745): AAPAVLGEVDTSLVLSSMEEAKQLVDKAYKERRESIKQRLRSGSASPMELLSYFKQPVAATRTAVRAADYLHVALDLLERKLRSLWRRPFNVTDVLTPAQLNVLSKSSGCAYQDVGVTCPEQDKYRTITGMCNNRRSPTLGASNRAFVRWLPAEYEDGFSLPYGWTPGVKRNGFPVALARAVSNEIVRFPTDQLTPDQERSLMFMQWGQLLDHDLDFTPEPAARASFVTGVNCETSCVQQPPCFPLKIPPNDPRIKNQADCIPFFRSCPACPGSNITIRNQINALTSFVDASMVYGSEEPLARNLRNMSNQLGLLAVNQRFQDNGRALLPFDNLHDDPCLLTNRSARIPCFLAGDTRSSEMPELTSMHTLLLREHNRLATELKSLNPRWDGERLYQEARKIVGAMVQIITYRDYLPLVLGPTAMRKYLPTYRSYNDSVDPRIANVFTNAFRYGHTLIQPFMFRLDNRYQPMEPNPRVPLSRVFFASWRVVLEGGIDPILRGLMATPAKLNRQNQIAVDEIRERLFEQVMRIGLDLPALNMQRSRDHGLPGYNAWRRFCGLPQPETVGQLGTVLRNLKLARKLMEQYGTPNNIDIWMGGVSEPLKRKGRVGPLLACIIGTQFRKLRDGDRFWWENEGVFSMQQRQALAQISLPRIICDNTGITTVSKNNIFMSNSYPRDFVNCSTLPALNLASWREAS
Experimental: [formula] where A=minimal Y value (activity level of inhibited sample), B=maximal Y value (activity level of uninhibited sample), C=Log IC50, D=Hill Slope, x=concentration of inhibitor. MPO Chlorination Assay (APF Assay)
MPO chlorination activity was measured in 100 mM KPi (pH 7.4) by utilizing the non-fluorescent reagent Aminophenyl fluorescein (APF, Invitrogen catalog #A36003). APF is cleaved by (—OCl) to yield the fluorescent compound fluorescein. Reactions were carried out in 50 μL total volume by adding a 25 μL mixture of 200 pM myeloperoxidase and 120 mM NaCl to 100 nL inhibitor in 100% DMSO in a 384 well, non-binding surface clear bottom plate (CORNING® #3655). Enzyme, inhibitor, and chloride were preincubated for ten minutes at room temperature.
After the ten minute preincubation, 25 μL of an APF mixture containing […], 120 mM NaCl and 10 μM H2O2 was added to the plate using the internal dispensing system of a Hammatsu FDSS 6000. Kinetic determinations were carried out immediately on the FDSS 6000 (3 minute kinetic read, 1 read every second, ex: 485 nm, em: 535 nm). IC50 values for inhibitors were calculated by taking the slope of the linear portion of the kinetic measurement (20 seconds to ˜80-120 secs).
IC50 values were calculated by determining the slope of the linear portion of the kinetic trace ([…]), and using that calculated slope to determine % inhibition occurring at each concentration of inhibitor using the following equation:
[formula] where A=minimal Y value (activity level of inhibited sample), B=maximal Y value (activity level of uninhibited sample), C=Log IC50, D=Hill Slope, x=concentration of inhibitor. EPX Bromination Assay

[2] = target: T1, myeloperoxidase (MPO); assay: MPO peroxidation assay (Amplex Red assay); format: biochemical
Procedure, shortened: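 MPO (200 pM) with 40 nM H2O2 was preincubated 10 min at room temperature with inhibitor in 100 mM KPi pH 7.4. A mix of Amplex Red (200 μM) and H2O2 (10 mM) was then added and resorufin fluorescence read kinetically for 15 min. Slopes over 180–540 s gave % inhibition and IC50 via a four-parameter Hill fit.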

[3] = MPO chlorination, potency range class, read-out: APF IC50
[4] = MPO peroxidation, potency range class, read-out: Amplex Red IC50

Row | Structure (SMILES) | IC50 [1, 3] [nM] | IC50 [2, 4] [nM] | IC50 [1] [nM] | IC50 [2] [nM]
1 | Nc1cc(OCc2cc(Cl)ccc2OC(F)(F)F)c2nn[nH]c2n1 [Example 36, 7-(5-Chloro-2-(trifluoromethoxy)benzyloxy)-3H-[1,2,3]triazolo[4,5-b]pyridin-5-amine] | 1 to 100 | 1 to 100 |  | 
2 | Nc1cc(OCc2cc(Cl)ccc2OC2CCCC2)c2nn[nH]c2n1 [Example 43, 7-(5-Chloro-2-(cyclopentyloxy)benzyloxy)-3H-[1,2,3]triazolo[4,5-b]pyridin-5-amine] | 101 to 999 | 1 to 100 |  | 
3 | CS(=O)(=O)c1ccc(Cl)cc1COc1cc(N)nc2[nH]nnc12 [Example 50, 7-(5-Chloro-2-(methylsulfonyl)benzyloxy)-3H-[1,2,3]triazolo[4,5-b]pyridin-5-amine] | 101 to 999 | 1 to 100 |  | 
4 | Nc1cc(OCC2CCCc3ccccc32)c2nn[nH]c2n1 (centres unmarked) [Example 52, 7-((1,2,3,4-Tetrahydronaphthalen-1-yl)methoxy)-3H-[1,2,3]triazolo[4,5-b]pyridin-5-amine] | 1000 to 10000 | 101 to 999 |  | 
5 | COc1ccc(Cl)cc1COc1cc(N)nc2[nH]nnc12 [Example 57, 7-(5-Chloro-2-methoxybenzyloxy)-3H-[1,2,3]triazolo[4,5-b]pyridin-5-amine] | 1 to 100 | 1 to 100 |  | 
6 | Nc1cc(OCc2cc(Br)ccc2F)c2nn[nH]c2n1 [Example 61, 7-(5-Bromo-2-fluorobenzyloxy)-3H-[1,2,3]triazolo[4,5-b]pyridin-5-amine] | 1 to 100 | 1 to 100 |  | 
7 | CC1CCCC(C)C1COc1cc(N)nc2[nH]nnc12 (centres unmarked) [Example 133, 7-((2,6-Dimethylcyclohexyl)methoxy)-3H-[1,2,3]triazolo[4,5-b]pyridin-5-amine] | 101 to 999 | 1 to 100 |  | 
8 | CC(Oc1cc(N)nc2[nH]nnc12)c1cccc(F)c1 (centres unmarked) [Example 139, 7-(1-(3-Fluorophenyl)ethoxy)-3H-[1,2,3]triazolo[4,5-b]pyridin-5-amine] | 101 to 999 | 1 to 100 |  | 
9 | Nc1cc(OCc2cc(C(=O)N3CCC(Cc4ccccc4)C3)ccc2Cl)c2nn[nH]c2n1 (centres unmarked) [Example 177, (3-((5-amino-3H-[1,2,3]triazolo [4,5-b]pyridin-7-yloxy)methyl)-4-chlorophenyl)(3-benzylpyrrolidin-1-yl)methanone] | 1000 to 10000 | 101 to 999 |  | 
10 | Nc1cc(OCc2cc(S(F)(F)(F)(F)F)ccc2F)c2nn[nH]c2n1 [Example 226, 7-(5-Pentafluorosulfanyl-2-fluorobenzyloxy)-3H-[1,2,3]triazolo[4,5-b]pyridin-5-amine] | 101 to 999 | 1 to 100 |  | 
11 | Nc1cc(OCc2c(Cl)cccc2Cl)c2nn[nH]c2n1 [Example 234, 7-((2,6-Dichlorobenzyl)oxy)-3H-[1,2,3]triazolo[4,5-b]pyridin-5-amine] |  |  | 1 to 100 | 1 to 100
12 | COc1cc(Br)ccc1COc1cc(N)nc2[nH]nnc12 [Example 242, 7-((4-Bromo-2-methoxybenzyl)oxy)-3H-[1,2,3]triazolo[4,5-b]pyridin-5-amine] | 1 to 100 | 1 to 100 |  | 
13 | NC(=O)c1ccccc1COc1cc(N)nc2[nH]nnc12 [Example 254, 2-(((5-Amino-3H-[1,2,3]triazolo[4,5-b]pyridin-7-yl)oxy)methyl)benzamide] | 1000 to 10000 | 1000 to 10000 |  | 
14 | Nc1cc(OCc2ccc(-n3cc(C(F)(F)F)cn3)cc2OC(F)(F)F)c2nn[nH]c2n1 [Example 271, 7-((2-(trifluoromethoxy)-4-(4-(trifluoromethyl)-1H-pyrazol-1-yl)benzyl)oxy)-3H-[1,2,3]triazolo[4,5-b]pyridin-5-amine] | 1000 to 10000 | 1 to 100 |  | 
15 | Cc1nccn1-c1ccc(COc2cc(N)nc3[nH]nnc23)c(C#N)c1 [Example 277, 2-(((5-amino-3H-[1,2,3]triazolo[4,5-b]pyridin-7-yl)oxy)methyl)-5-(2-methyl-1H-imidazol-1-yl)benzonitrile] | 1000 to 10000 | 101 to 999 |  | 
16 | CC(C)n1cc(-c2ccc(COc3cc(N)nc4[nH]nnc34)c(OC(F)(F)F)c2)cn1 [Example 305, 7-((4-(1-isopropyl-1H-pyrazol-4-yl)-2-(trifluoromethoxy)benzyl)oxy)-3H-[1,2,3] triazolo[4,5-b]pyridin-5-amine] | 101 to 999 | 1 to 100 |  | 
17 | COc1ncc(-c2cc(F)c(COc3cc(N)nc4[nH]nnc34)c(F)c2)cn1 [Example 334, 7-((2,6-difluoro-4-(2-methoxypyrimidin-5-yl)benzyl)oxy)-3H-[1,2,3]triazolo[4,5-b] pyridin-5-amine] | 101 to 999 | 1 to 100 |  | 
18 | Nc1cc(OCc2c(F)cc(-c3ccc(N4CCNCC4)nc3)cc2F)c2nn[nH]c2n1 [Example 336, 7-((2,6-difluoro-4-(6-(piperazin-1-yl)pyridin-3-yl)benzyl)oxy)-3H-[1,2,3]triazolo[4,5-b] pyridin-5-amine] | 1 to 100 | 1 to 100 |  | 
19 | Nc1cc(OCc2c(F)ccc(-c3cncc(C(=O)N4CCOCC4)c3)c2Cl)c2nn[nH]c2n1 [Example 345, (5-(3-(((5-amino-3H-[1,2,3]triazolo[4,5-b]pyridin-7-yl)oxy)methyl)-2-chloro-4-fluorophenyl)pyridin-3-yl)(morpholine) methanone] | 1000 to 10000 | 101 to 999 |  | 
20 | CC1CN(c2ccc(-c3ccc(COc4cc(N)nc5[nH]nnc45)c(C#N)c3)cn2)CC(C)N1 (centres unmarked) [Example 350, 2-(((5-Amino-3H-[1,2,3]triazolo[4,5-b]pyridin-7-yl)oxy)methyl)-5-(6-(3,5-dimethylpiperazin-1-yl)pyridin-3-yl)benzonitrile] |  | 1 to 100 |  | 
21 | N#Cc1ccc(OC(F)F)cc1COc1cc(N)nc2[nH]nnc12 [Example 351, 2-(((5-amino-3H-[1,2,3]triazolo[4,5-b]pyridin-7-yl)oxy)methyl)-4-(difluoromethoxy)benzonitrile] |  | 1 to 100 |  | 
22 | N#Cc1ccc(OC2CC2)cc1COc1cc(N)nc2[nH]nnc12 [Example 352, 2-(((5-amino-3H-[1,2,3]triazolo[4,5-b]pyridin-7-yl)oxy)methyl)-4-cyclopropoxybenzonitrile] |  | 1 to 100 |  | 

Reference: patent US10316035B2, “Triazolopyridine inhibitors of myeloperoxidase” (BRISTOL-MYERS SQUIBB COMPANY, priority 2015, dated 2019)
